Assay results as given in patent US20020082273A1, “Agents for use in the treatment of alzheimer's disease” (priority 1998, published 2002).
Several values for one entry are separate records, joined by “and”; a condition that tells them apart may be missing. Equal entries are not always repeated.

Columns and labels:
[1] = Metal reduction assay, Cu^2+ to Cu^+; assay type: biochemical; settings: 10 μM Cu^2+, PBS pH 7.4, 1 hr 37° C.
Procedure: Aβ (10 μM in PBS, pH 7.4 or 6.8, as shown) was incubated for 30 minutes (37° C.) in the presence of Cu^2+10 μM ±Zn^2+ 10 μM). […] levels (n=3, ±SD) were assayed against a standard curve.
Polypeptides (10 μM) or Vitamin C (100 μM), metal ions (10 μM, Fe(NO3)3 or Cu(NO3)2), and reduced metal ion indicators, bathophenanthrolinedisulfonic acid (BP, for Fe^2+, Sigma, 200 μM) or bathocuproinedisulfonic acid (BC, for Cu^+, Sigma, 200 μM), were coincubated in phosphate buffered saline (PBS), pH 7.4, for 1 hr at 37° C. The metal ion solutions were prepared by direct dilution in the buffer from their aqueous stocks purchased from National Institute of Standards and Technology (NIST). […] In control samples, both metal ion and indicator were present to determine the background buffer signal. As a further control, both metal ion and peptide were present in the absence of indicator to estimate the contribution of light scattering due to turbidity to the absorbance reading at these wavelengths. The net absorbances (ΔA) at 536 nm or 483 nm were obtained by deducting the absorbances from these controls from the absorbances generated by the peptide and metal in the presence of the respective indicator.

[2] = Cu^2+-induced SDS-resistant polymerization of Aβ peptides, western blot image analysis; assay type: biochemical, human; settings: for conversion of monomer to dimer / conversion of monomer to trimer: Cu^2+ 30 μM
Procedure: Following incubation (37° C.), aliquots of each reaction (2 ng peptide) were collected at 0 d, 1 d, 3 d and 5 d and western blotted using anti-Aβ monoclonal antibody 8E10 (FIG. 9). Migration of the molecular size markers are indicated (kDa). […] It should be noted that other means of visualizing and/or determining the presence or absence of polymerization other than western blot analysis may be used. Such other means include but are not limited to density sedimentation by centrifugation of the samples.
The generation of SDS-resistant Aβ polymers by metal ions was tested by incubating Cu^2+ (30 μM) or Zn^2+ (30 μM) at pH 6.6, 7.4 and 9.0 with Aβ1-40.
(0-30 μM) at pH 7.4 and 6.6 and the samples analyzed by Western blot and the signal quantitated using the Fluoro-S Image Analysis System (Bio-Rad, Hercules, Calif.) as previously described.

[3] = Aβ aggregation assay (soluble peptide after centrifugation); assay type: physicochemical, human
Procedure: Aβ stock was diluted to 2.5 μM in 150 mM NaCl and 20 mM glycine (pH 3-4.5), MES (pH 5-6.2) or HEPES (pH 6.4-8.8), with or without metal ions, incubated (30 min., 37° C.), centrifuged (20 min., 10000 g). The amount of protein in the supernatant was determined by the Micro BCA protein assay as described above.
The resultant aggregated particles were sedimented by centrifugation to permit determination of soluble Aβ1-40 in the supernatant. To determine the centrifugation time required to completely sediment the aggregated particles generated under these conditions, Aβ1-40 was incubated for 30 min at 37° C. with no metal, Zn^2+ (100 μM), Cu^2+ (100 μM) and pH (5.5). Reaction mixtures were centrifuged at 10000 g for different times, or ultracentrifuged at 100000 g for 1 h. (FIG. 1). […] Aβ1-40 was incubated (30 min., 37° C.) with no metal, under acidic conditions (pH 5.5), Zn^2+ (100 μM) or Cu^2+ (100 μM), and centrifuged at 10000 g for different time intervals, or at 100,000 g (ultracentrifuged) for 1 h for comparison. All data points are means ±SD, n=3.
Since the conformational state and solubility of Aβ is altered at different pH (Soto, C., et al., J. Neurochem. 63:1191-1198 (1994)), the effects of [H^+] on Zn^2+- and […] Aβ1-40 aggregation were studied. […] All data points are means ±SD, n=3. [H^+] alone precipitates Aβ1-40 (2.5 μM) as the solution is lowered below pH 7.4, and dramatically once the pH falls below 6.3 (FIG. 4A). At pH 5.0, 80% of the peptide is precipitated, but the peptide is not aggregated by acidic environments below pH 5, confirming and extending earlier reports on the effect of pH on Aβ solubility (Burdick, D., J. Biol. Chem. 267:546-554 (1992)). Zn^2+ (30 μM) induced a constant level (˜50%) of aggregation between pH 6.2-8.5, while below pH 6.0, aggregation could be explained solely by the effect of [H^+].

Aβ1-40: synthetic human Aβ peptide, residues 1-40
reduction of available Cu^2+ [1]: 60%
conversion of monomer to dimer ([2]; pH 6.6, 5 d): 29%
conversion of monomer to trimer ([2]; pH 6.6, 5 d): 2%
conversion of monomer to dimer ([2]; pH 7.4, 5 d): 42%
conversion of monomer to trimer ([2]; pH 7.4, 5 d): 9%
peptide converted to SDS-resistant dimer ([2]; no added metal, pH 6.6, 7.4 or 9.0, 5 d): Less than 4%
SDS-resistant polymers: Dimer ([2]; pH 6.6, [Cu^2+] 0): 2.1
SDS-resistant polymers: Monomer ([2]; pH 6.6, [Cu^2+] 0): 97.9
SDS-resistant polymers: Pentamer ([2]; pH 6.6, [Cu^2+] 0): 0
SDS-resistant polymers: Tetramer ([2]; pH 6.6, [Cu^2+] 0): 0
SDS-resistant polymers: Trimer ([2]; pH 6.6, [Cu^2+] 0): <0.1
SDS-resistant polymers: Dimer ([2]; pH 6.6, [Cu^2+] 0.5): 2.2
SDS-resistant polymers: Monomer ([2]; pH 6.6, [Cu^2+] 0.5): 97.6
SDS-resistant polymers: Pentamer ([2]; pH 6.6, [Cu^2+] 0.5): 0
SDS-resistant polymers: Tetramer ([2]; pH 6.6, [Cu^2+] 0.5): 0
SDS-resistant polymers: Trimer ([2]; pH 6.6, [Cu^2+] 0.5): 0.2
SDS-resistant polymers: Dimer ([2]; pH 6.6, [Cu^2+] 1): 7.3
SDS-resistant polymers: Monomer ([2]; pH 6.6, [Cu^2+] 1): 92.6
SDS-resistant polymers: Pentamer ([2]; pH 6.6, [Cu^2+] 1): 0
SDS-resistant polymers: Tetramer ([2]; pH 6.6, [Cu^2+] 1): 0
SDS-resistant polymers: Trimer ([2]; pH 6.6, [Cu^2+] 1): 0.1
SDS-resistant polymers: Dimer ([2]; pH 6.6, [Cu^2+] 5): 9.8
SDS-resistant polymers: Monomer ([2]; pH 6.6, [Cu^2+] 5): 90.1
SDS-resistant polymers: Pentamer ([2]; pH 6.6, [Cu^2+] 5): 0
SDS-resistant polymers: Tetramer ([2]; pH 6.6, [Cu^2+] 5): 0
SDS-resistant polymers: Trimer ([2]; pH 6.6, [Cu^2+] 5): 0.1
SDS-resistant polymers: Dimer ([2]; pH 6.6, [Cu^2+] 10): 16.1
SDS-resistant polymers: Monomer ([2]; pH 6.6, [Cu^2+] 10): 79.4
SDS-resistant polymers: Pentamer ([2]; pH 6.6, [Cu^2+] 10): 0
SDS-resistant polymers: Tetramer ([2]; pH 6.6, [Cu^2+] 10): 0
SDS-resistant polymers: Trimer ([2]; pH 6.6, [Cu^2+] 10): 4.5
SDS-resistant polymers: Dimer ([2]; pH 6.6, [Cu^2+] 30): 13.2
SDS-resistant polymers: Monomer ([2]; pH 6.6, [Cu^2+] 30): 74.5
SDS-resistant polymers: Pentamer ([2]; pH 6.6, [Cu^2+] 30): 0
SDS-resistant polymers: Tetramer ([2]; pH 6.6, [Cu^2+] 30): 0
SDS-resistant polymers: Trimer ([2]; pH 6.6, [Cu^2+] 30): 12.2
increase in dimerization ([2]; pH 6.6, [Cu^2+] increased from 0.5 to 1 μM): over 3 fold
SDS-resistant polymers: Dimer ([2]; pH 7.4, [Cu^2+] 0): 3.2
SDS-resistant polymers: Monomer ([2]; pH 7.4, [Cu^2+] 0): 96.8
SDS-resistant polymers: Pentamer ([2]; pH 7.4, [Cu^2+] 0): 0
SDS-resistant polymers: Tetramer ([2]; pH 7.4, [Cu^2+] 0): 0
SDS-resistant polymers: Trimer ([2]; pH 7.4, [Cu^2+] 0): <0.1
SDS-resistant polymers: Dimer ([2]; pH 7.4, [Cu^2+] 0.5): 4.9
SDS-resistant polymers: Monomer ([2]; pH 7.4, [Cu^2+] 0.5): 94.8
SDS-resistant polymers: Pentamer ([2]; pH 7.4, [Cu^2+] 0.5): 0
SDS-resistant polymers: Tetramer ([2]; pH 7.4, [Cu^2+] 0.5): 0
SDS-resistant polymers: Trimer ([2]; pH 7.4, [Cu^2+] 0.5): 0.3
SDS-resistant polymers: Dimer ([2]; pH 7.4, [Cu^2+] 1): 5.9
SDS-resistant polymers: Monomer ([2]; pH 7.4, [Cu^2+] 1): 93.6
SDS-resistant polymers: Pentamer ([2]; pH 7.4, [Cu^2+] 1): 0
SDS-resistant polymers: Tetramer ([2]; pH 7.4, [Cu^2+] 1): 0
SDS-resistant polymers: Trimer ([2]; pH 7.4, [Cu^2+] 1): 0.6
SDS-resistant polymers: Dimer ([2]; pH 7.4, [Cu^2+] 5): 14.2
SDS-resistant polymers: Monomer ([2]; pH 7.4, [Cu^2+] 5): 84.3
SDS-resistant polymers: Pentamer ([2]; pH 7.4, [Cu^2+] 5): 0
SDS-resistant polymers: Tetramer ([2]; pH 7.4, [Cu^2+] 5): 0
SDS-resistant polymers: Trimer ([2]; pH 7.4, [Cu^2+] 5): 1.5
SDS-resistant polymers: Dimer ([2]; pH 7.4, [Cu^2+] 10): 13.2
SDS-resistant polymers: Monomer ([2]; pH 7.4, [Cu^2+] 10): 85.2
SDS-resistant polymers: Pentamer ([2]; pH 7.4, [Cu^2+] 10): 0
SDS-resistant polymers: Tetramer ([2]; pH 7.4, [Cu^2+] 10): 0
SDS-resistant polymers: Trimer ([2]; pH 7.4, [Cu^2+] 10): 1.6
SDS-resistant polymers: Dimer ([2]; pH 7.4, [Cu^2+] 30): 19.1
SDS-resistant polymers: Monomer ([2]; pH 7.4, [Cu^2+] 30): 76.2
SDS-resistant polymers: Pentamer ([2]; pH 7.4, [Cu^2+] 30): 0
SDS-resistant polymers: Tetramer ([2]; pH 7.4, [Cu^2+] 30): 0
SDS-resistant polymers: Trimer ([2]; pH 7.4, [Cu^2+] 30): 4.7
available peptide aggregated by Cu^2+ ([3]; Cu^2+ (30 μM), pH 6.8): > 85% and 85%
level of aggregation induced by Zn^2+ ([3]; Zn^2+ 30 μM, pH 6.2-8.5): ~50%
aggregation in the presence of Cu ([3]; pH 7.1): approx. 30%
